Each compound was assayed against human adenosine A2a receptor (Homo sapiens (Human), UniProt P29274) (assay: A2a receptor binding affinity, [3H]-NECA radioligand binding test). Details: [3H]-NECA 37 nM; membrane from HEK-293 cells transfected with human adenosine A2a receptor.
Procedure, shortened: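 IC50 values (μM) come from displacement of [3H]-NECA, used at 37 nM final, on human A2a receptor membranes from transfected HEK-293 cells. Incubation lasted one hour at room temperature in Tris/MgCl2/EDTA buffer, pH 7.4; filter-bound radioactivity was counted by scintillation.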

Sequence of human adenosine A2a receptor (P29274 whole entry): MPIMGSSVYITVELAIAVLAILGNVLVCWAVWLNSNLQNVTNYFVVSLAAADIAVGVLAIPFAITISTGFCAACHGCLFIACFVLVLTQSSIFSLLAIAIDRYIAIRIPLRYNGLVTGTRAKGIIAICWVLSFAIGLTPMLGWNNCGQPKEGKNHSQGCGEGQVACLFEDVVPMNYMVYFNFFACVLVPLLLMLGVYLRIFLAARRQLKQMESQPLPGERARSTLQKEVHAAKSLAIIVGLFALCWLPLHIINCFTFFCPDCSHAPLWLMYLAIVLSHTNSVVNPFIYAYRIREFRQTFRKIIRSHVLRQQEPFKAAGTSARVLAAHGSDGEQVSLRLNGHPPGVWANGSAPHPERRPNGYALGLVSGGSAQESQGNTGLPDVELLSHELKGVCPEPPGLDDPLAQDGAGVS

| IC50 [nM] | SMILES |
| --- | --- |
| 0.1 | Nc1nc(N[C@H](C(=O)N2CCN(c3ccc(F)cc3F)CC2)C2CCCCC2)nc2nc(-c3ccco3)nn12 [Example 11, (S)-2-((7-amino-2-(furan-2-yl)-[1,2,4]triazolo[1,5-a][1,3,5]triazin-5-yl)amino)-2-cyclohexyl-1-(4-(2,4-difluorophenyl)piperazin-1-yl)ethan-1-one] |
| 12 | COCCOc1ccc(N2CCN(C(=O)[C@@H]3CCCN3c3nc(N)n4nc(-c5ccco5)nc4n3)CC2)cc1 [Example 310, (S)-(1-(7-amino-2-(furan-2-yl)-[1,2,4]triazolo[1,5-a][1,3,5]triazin-5-yl)pyrrolidin-2-yl)(4-(4-(2-methoxyethoxy)phenyl)piperazin-1-yl)methanone] |
| 68 | Nc1nc(N2CCC[C@H]2C(=O)N2CCN(S(=O)(=O)C3CC3)CC2)nc2nc(-c3ccco3)nn12 [Example 69, (S)-(1-(7-amino-2-(furan-2-yl)-[1,2,4]triazolo[1,5-a][1,3,5]triazin-5-yl)pyrrolidin-2-yl)(4-(cyclopropylsulfonyl)piperazin-1-yl)methanone] |
| 9 | Nc1nc(N2CC[C@H]2C(=O)N2CCN(c3ncccn3)CC2)nc2nc(-c3ccco3)nn12 [Example 242, (S)-(1-(7-amino-2-(furan-2-yl)-[1,2,4]triazolo[1,5-a][1,3,5]triazin-5-yl)azetidin-2-yl)(4-(pyrimidin-2-yl)piperazin-1-yl)methanone] |
| 12 | C[C@H](Nc1nc(N)n2nc(-c3nccs3)nc2n1)C(=O)N1CCN(c2ccc(F)cc2F)CC1 [Example 194, (S)-2-((7-amino-2-(thiazol-2-yl)-[1,2,4]triazolo[1,5-a][1,3,5]triazin-5-yl)amino)-1-(4-(2,4-difluorophenyl)piperazin-1-yl)propan-1-one] |
| 3 | Nc1nc(N2CC[C@H]2C(=O)N2CCC(C3CCN(CC(F)F)CC3)CC2)nc2nc(-c3ccco3)nn12 [Example 323, (S)-(1-(7-amino-2-(furan-2-yl)-[1,2,4]triazolo[1,5-a][1,3,5]triazin-5-yl)azetidin-2-yl)(1′-(2,2-difluoroethyl)-[4,4′-bipiperidin]-1-yl)methanone] |
| 19 | Cc1ccc(-c2nc3nc(N4CC[C@H]4C(=O)N4CCN(CC(C)(F)F)CC4)nc(N)n3n2)o1 [Example 314, (S)-(1-(7-amino-2-(5-methylfuran-2-yl)-[1,2,4]triazolo[1,5-a][1,3,5]triazin-5-yl)azetidin-2-yl)(4-(2,2-difluoropropyl)piperazin-1-yl)methanone] |
| 9 | Nc1nc(N2CCC[C@H]2C(=O)N2CCC(C3CCN(CC(F)(F)C(F)F)CC3)CC2)nc2nc(-c3ccco3)nn12 [Example 289, (S)-(1-(7-amino-2-(furan-2-yl)-[1,2,4]triazolo[1,5-a][1,3,5]triazin-5-yl)pyrrolidin-2-yl)(1′-(2,2,3,3-tetrafluoropropyl)-[4,4′-bipiperidin]-1-yl)methanone] |
| 12 | CCC(F)(F)CN1CCN(C(=O)[C@@H]2CCN2c2nc(N)n3nc(-c4ccco4)nc3n2)CC1 [Example 254, (S)-(1-(7-amino-2-(furan-2-yl)-[1,2,4]triazolo[1,5-a][1,3,5]triazin-5-yl)azetidin-2-yl)(4-(2,2-difluorobutyl)piperazin-1-yl)methanone] |
| 13 | C[C@@H]1CN(Cc2ccc(F)cc2F)CCN1C(=O)[C@@H]1CCCN1c1nc(N)n2nc(-c3ccco3)nc2n1 [Example 51, ((S)-1-(7-amino-2-(furan-2-yl)-[1,2,4]triazolo[1,5-a][1,3,5]triazin-5-yl)pyrrolidin-2-yl)((R)-4-(2,4-difluorobenzyl)-2-methylpiperazin-1-yl)methanone] |
| 3 | Nc1nc(N2CCC[C@H]2C(=O)N2CCN(c3ccc(F)cc3F)CC2)nc2nc(-c3nccs3)nn12 [Example 67, (S)-(1-(7-amino-2-(thiazol-2-yl)-[1,2,4]triazolo[1,5-a][1,3,5]triazin-5-yl)pyrrolidin-2-yl)(4-(2,4-difluorophenyl)piperazin-1-yl)methanone] |
| 0.5 | Nc1nc(N2CCC[C@H]2C(=O)N2CCN(c3ncc4c(n3)COC4)CC2)nc2nc(-c3ccco3)nn12 [Example 384, 2-(4-((7-amino-2-(furan-2-yl)-[1,2,4]triazolo[1,5-a][1,3,5]triazin-5-yl)-L-prolyl)piperazin-1-yl)-5,7-dihydrofuro[3,4-d]pyrimidine] |
| 13 | CCCCN1CCN(C(=O)[C@H](CC)Nc2nc(N)n3nc(-c4ccco4)nc3n2)CC1 [Example 172, (S)-2-((7-amino-2-(furan-2-yl)-[1,2,4]triazolo[1,5-a][1,3,5]triazin-5-yl)amino)-1-(4-butylpiperazin-1-yl)butan-1-one] |
| 7 | Nc1nc(N2CCC[C@H]2C(=O)N2CCC(C(=O)Nc3cnccn3)CC2)nc2nc(-c3ccco3)nn12 [Example 80, 1-((7-amino-2-(furan-2-yl)-[1,2,4]triazolo[1,5-a][1,3,5]triazin-5-yl)-L-prolyl)-N-(pyrazin-2-yl)piperidin-4-carboxamide] |
| 11 | Nc1nc(N2CCC[C@H]2C(=O)N2CCC(C(=O)Nc3cccc(C(F)F)c3)CC2)nc2nc(-c3ccco3)nn12 [Example 132, 1-((7-amino-2-(furan-2-yl)-[1,2,4]triazolo[1,5-a][1,3,5]triazin-5-yl)-L-prolyl)-N-(3-(difluoromethyl)phenyl)piperidin-4-carboxamide] |
| 11 | Nc1nc(N2CCC[C@H]2C(=O)N2CCN(C(=O)NC3CCCCC3)CC2)nc2nc(-c3ccco3)nn12 [Example 117, 4-((7-amino-2-(furan-2-yl)-[1,2,4]triazolo[1,5-a][1,3,5]triazin-5-yl)-L-prolyl)-N-cyclohexylpiperazin-1-carboxamide] |
| 24 | CCCN1CCN(C(=O)[C@@H]2CCCN2c2nc(N)n3nc(-c4ccco4)nc3n2)CC1 [Example 135, (S)-(1-(7-amino-2-(furan-2-yl)-[1,2,4]triazolo[1,5-a][1,3,5]triazin-5-yl)pyrrolidin-2-yl)(4-propylpiperazin-1-yl)methanone] |
| 14 | CC(C)[C@H](Nc1nc(N)n2nc(-c3ccco3)nc2n1)C(=O)N1CCN(CCC(F)(F)F)CC1 [Example 367, (S)-2-((7-amino-2-(furan-2-yl)-[1,2,4]triazolo[1,5-a][1,3,5]triazin-5-yl)amino)-3-methyl-1-(4-(3,3,3-trifluoropropyl)piperazin-1-yl)butan-1-one] |
| 4 | Nc1nc(N[C@H](C(=O)N2CCN(c3ccc(F)cc3F)CC2)C2CC2)nc2nc(-c3ccco3)nn12 [Example 168, (S)-2-((7-amino-2-(furan-2-yl)-[1,2,4]triazolo[1,5-a][1,3,5]triazin-5-yl)amino)-2-cyclopropyl-1-(4-(2,4-difluorophenyl)piperazin-1-yl)ethan-1-one] |
| 3 | Nc1nc(N2CCC[C@H]2C(=O)N2CCC(c3ccccc3)CC2)nc2nc(-c3ccco3)nn12 [Example 128, (S)-(1-(7-amino-2-(furan-2-yl)-[1,2,4]triazolo[1,5-a][1,3,5]triazin-5-yl)pyrrolidin-2-yl)(4-phenylpiperidin-1-yl)methanone] |
| 15 | CC(C)(C(=O)N1CCN(C(=O)[C@@H]2CCCN2c2nc(N)n3nc(-c4ccco4)nc3n2)CC1)C(F)(F)F [Example 86, 1-(4-((7-amino-2-(furan-2-yl)-[1,2,4]triazolo[1,5-a][1,3,5]triazin-5-yl)-L-prolyl)piperazin-1-yl)-3,3,3-trifluoro-2,2-dimethylpropan-1-one] |
